Data on 9 molecules can be found in patent publication US10799494B2, “Combination of respiratory electron transport chain inhibitors with a cytochrome bd inhibitor” (priority 2015, dated 2020).

Values joined by “and” are separate entries in the source; they are usually repeats but may differ in a detail not shown here. Identical values can stand only once.

In data set [1] the target is bovine cytochrome bc1 (Bos taurus (Bovine), UniProt P00157). Briefly: Bovine cytochrome bc1 inhibition (cytochrome c reduction, Keilin-Hartree particles). Type of data set: biochemical.
The subject of data set [2] is M. tuberculosis H37Rv. Kind of data set: M. tuberculosis H37Rv growth inhibition screen at fixed 5 μM. Type of data set: cell-based, Mycobacterium tuberculosis. The settings on record: Mycobacterium tuberculosis, H37RV; aerobic; 5 μM compound; read-out: Growth of M. tuberculosis H37Rv (aerobic) at 5 μM of [compounds].
Data set [3] concerns HepG2 cell line. Kind of data set: Human cell counter screen (HepG2) cellular toxicity.
Data set [4] addresses M. tuberculosis cytochrome bd-I (Mycobacterium tuberculosis, UniProt L7N662). In kind it is biochemical.
Data set [5] deals with recombinant M. tuberculosis bd-I (Mycobacterium tuberculosis, UniProt L7N662). Kind of data set: Steady-state kinetics of quinol:Mtb bd-I activity with artificial quinol substrates. The following applies: for specific catalytic activity: FIG. 1, measured at 283 nm.
Data set [6] concerns Mycobacterium tuberculosis (Mtb) H37Rv. Kind of data set: MGIT growth inhibition assay, time to positivity. Type of data set: cell-based.
Data set [7] has as its system Mtb H37Rv. Briefly: In vitro (replicating) Mtb growth inhibition, microplate Alamar blue assay. Type of data set: cell-based, Mycobacterium tuberculosis. A general note: Resazurin is reduced to fluorescent resorufin, in cell work by metabolically active cells.
For data set [8] the following is noted: 9/79 vs placebo 2/81, […]; cited from earlier work.
The test system of data set [9] is COc1c(O)c(C)c(CC=C(C)C)c(O)c1OC. Kind of data set: cells, lysate or membranes named. The following applies: pH 7.5.
For data set [10], the system named is COc1c(O)c(C)c(C/C=C(\C)CCC=C(C)C)c(O)c1OC. Briefly: cells, lysate or membranes named. The settings on record: pH 7.5.
Where [11] appears, read: Table 8, WDH-2G-6 3 μM, MTC420 5.5 μM, lansoprazole sulphide 26.5 μM, TMC207 250 nM, media control 10.

Sequence of bovine cytochrome bc1 (P00157 whole entry, looked up): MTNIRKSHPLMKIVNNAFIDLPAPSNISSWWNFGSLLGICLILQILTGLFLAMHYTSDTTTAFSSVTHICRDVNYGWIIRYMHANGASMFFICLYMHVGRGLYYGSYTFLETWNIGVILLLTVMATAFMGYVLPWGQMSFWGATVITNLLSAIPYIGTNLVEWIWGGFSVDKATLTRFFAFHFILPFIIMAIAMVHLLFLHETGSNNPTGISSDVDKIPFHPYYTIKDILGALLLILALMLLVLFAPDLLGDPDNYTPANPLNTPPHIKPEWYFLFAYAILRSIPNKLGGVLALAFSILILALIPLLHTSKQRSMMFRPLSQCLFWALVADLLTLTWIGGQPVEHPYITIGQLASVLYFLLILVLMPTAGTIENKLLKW
Sequence of recombinant M. tuberculosis bd-I (L7N662 1-485): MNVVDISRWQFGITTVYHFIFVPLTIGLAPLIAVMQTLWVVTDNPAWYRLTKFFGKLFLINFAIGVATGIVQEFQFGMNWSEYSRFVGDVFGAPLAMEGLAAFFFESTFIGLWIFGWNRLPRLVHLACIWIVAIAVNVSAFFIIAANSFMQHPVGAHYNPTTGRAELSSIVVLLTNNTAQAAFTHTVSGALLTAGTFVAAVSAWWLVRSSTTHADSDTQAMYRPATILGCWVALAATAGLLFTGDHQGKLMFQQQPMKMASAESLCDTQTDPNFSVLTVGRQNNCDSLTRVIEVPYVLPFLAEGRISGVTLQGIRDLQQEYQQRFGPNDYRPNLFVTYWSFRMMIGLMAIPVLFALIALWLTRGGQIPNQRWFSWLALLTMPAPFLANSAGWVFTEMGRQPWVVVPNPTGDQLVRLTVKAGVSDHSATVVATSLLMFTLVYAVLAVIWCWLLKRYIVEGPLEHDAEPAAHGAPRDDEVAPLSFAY
Sequence of M. tuberculosis cytochrome bd-I (L7N662 1-485): as above

Consider `Cc1c(-c2ccc(Cc3ccccc3)cc2)[nH]c2ccccc2c1=O` [CK-2-88, 2-(4-Benzylphenyl)-3-methylquinolin-4(1H)-one], for which the concentration for half-maximal inhibition (IC50) (commonly the concentration at which inhibition is half-maximal) in data set [1] was found to be 340 nM. In addition, in data set [2], the activity at 5 µM came out at 90.5%. This molecule gave a HepG2 in [3] of over 100 µM. Besides, the “inhibition @ 1 uM (% of cntls)” value in data set [4] is reported as 87.5 % of cntls.
For `COc1c(O)c(C)c(C/C=C(\C)CCC=C(C)C)c(O)c1OC` [Compound Q2H2, ubiquinol-2], in data set [5], the “specific catalytic activity ± SEM” value amounted to 8.7 ± 2.5 µmol/min/mg and the specific catalytic activity came out at 8.65 ± 2.5 µmol/min/mg.
Consider `Cc1c(-c2ccc(Cc3ccc(F)cc3)cc2)[nH]c2ccccc2c1=O` [LT-9, 2-(4-(4-Fluorobenzyl)phenyl)-3-methylquinolin-4(1H)-one], for which the activity at 5 µM in data set [2] came out at 34.7%. The same molecule came in with a HepG2 in data set [3] of over 50 µM.
In the case of `Cc1c(-c2ccc(N3CCC(F)(F)C3)cc2)[nH]c2cc(F)cc(F)c2c1=O` [MTC420], in data set [6] (FIG. 3, repeated 3 times), the “Time to positivity / outgrowth of Mtb in MGITs” value fell in the range of 11 to 13 days. The “Time to Positivity” value in data set [6] (Table 6, compounds at 5x IC90, drug free control 11, followed to 74 days) was 18 days; in data set [6] (setting [11]), 13 days. In addition, the IC50 in [7] was determined as 520 nM.
Molecule `O=c1cc(-c2ccc(Cc3ccc(OC(F)(F)F)cc3)cc2)[nH]c2ccccc12` [RKA-70, 2-(4-(4-(Trifluoromethoxy)benzyl)phenyl)quinolin-4(1H)-one] came in with an IC50 in data set [1] of 310 nM. For the same molecule, in data set [2], the activity at 5 µM came out at 100%. This molecule also came in with a HepG2 in data set [3] of over 50 µM.
The matching figures for `Cc1c(-c2ccc(-c3ccc(OC(F)(F)F)cc3)nc2)[nH]c2ccccc2c1=O` [SL-2-25, 3-Methyl-2-(6-(4-(trifluoromethoxy)phenyl)pyridin-3-yl)quinolin-4(1H)-one]: 890 nM, 88.9% and over 50 µM.
`COc1nc2ccc(Br)cc2cc1[C@@H](c1ccccc1)[C@@](O)(CCN(C)C)c1cccc2ccccc12` [TMC 207, bedaquiline]: the “Time to Positivity” value was found to be 12 days in data set [6] (Table 7 / FIG. 9, compounds at 5x IC90, 7.5×10^5 Mtb cells per tube, drug free control 8, followed to 80 days) and 13 days in data set [6] (setting [11]). Also, in data set [8], the “death in treatment group” value is reported as 11.4%.
As for `CCCCCCCCCCc1c(C)c(O)c(OC)c(OC)c1O` [dQH2, decylubiquinol], in [5], the “specific catalytic activity ± SEM” value was 9.0 ± 0.2 µmol/min/mg and 5.1 ± 0.3 µmol/min/mg and 6.2 ± 0.5 µmol/min/mg; the specific catalytic activity was determined as 5.1 ± 0.29 µmol/min/mg.
For “recombinant M. tuberculosis bd-I (Mycobacterium tuberculosis H37Rv)”, the Km (usually the concentration of substrate that gives half-maximal velocity) was 51.55 ± 8.9 µM and 51.6 ± 8.9 µM and 51.8 ± 6.1 µM in [9]; 65.21 ± 15.31 µM and 65.2 ± 15.3 µM in data set [10].
